{"source": "patent US20200407700A1", "about": "“COMPOSITIONS OF PARP14 MODULATORS AND/OR MUTANTS AND THERAPEUTIC USE THEREOF” (President and Fellows of Harvard College, priority 2018, published 2020)", "key": {"elderly mice": {"test_system": "elderly mice", "settings": "cited from earlier work"}, "[1]": {"test_system": "bone marrow derived macrophages (BMDMs)", "test": "NAD^+ levels in LPS-treated bone marrow derived macrophages (enzyme-coupled luciferase assay)", "format": "cell-based, mouse", "settings": "for LPS-induced drop in NAD^+ levels / protection of NAD^+ levels in macrophages exposed to LPS: BMDMs; for LPS-induced drop in NAD^+ levels: 6 hours of treatment, in the presence of LPS", "text": "FIG. 2 contains 13 panels, 2A-2M, depicting that PARP14 is necessary for LPS-induced NAD^+ destruction. FIG. 2A-2C show NAD^+ levels in response to LPS in wild-type or (FIG. 2A) CD38KO, (FIG. 2B) SARM1KO, and (FIG. 2C) PARP1KO BMDMs. […] FIGS. 2K and 2L show NAD^+ (2K) and NADH levels (2L) in PARP14KO BMDMs.\nFIG. 3 contains 6 panels, 3A-3F, depicting PARP14 catalytic mechanism. […] FIG. 3E depicts NAD^+ levels after treatment with NSC-61610. FIG. 3F depicts NAD^+ levels after treatment with NSC-127133 and LPS.\nNAD^+ levels rapidly decline upon LPS-activation in bone marrow derived macrophages (BMDMs). […] NAD^+ and NADH levels recover after about 24 hours (FIG. 1A-1B). […] Using a genetically-encoded fluorescent reporter in RAW264.7 immortalized macrophages (FIG. 1C), it was confirmed that these changes occur in all three major compartments of the cell. Mass spectrometry-based metabolomics in BMDMs were performed which confirmed that an increase in NAD^+ hydrolysis is driving the phenomenon (FIG. 1D-1E). Additional experiments using flux metabolomics in collaboration with Professor Marie Migaud at the University of South Alabama may be used in order to determine the rates of consumption and salvage of NAD^+, before and after treatment with LPS. In such experiments, isotopically-labeled NMN (an NAD^+ precursor) are synthesized with labels on the phosphate, ribose, and nicotinamide groups, which allows tracing of multiple downstream metabolites."}, "influenza": {"test_system": "influenza", "settings": "via a different mechanism; cited from earlier work"}, "PARP1": {"molecular_target": "PARP1 (Homo sapiens, UniProt P09874)", "sequence (P09874 whole entry, species assumed)": "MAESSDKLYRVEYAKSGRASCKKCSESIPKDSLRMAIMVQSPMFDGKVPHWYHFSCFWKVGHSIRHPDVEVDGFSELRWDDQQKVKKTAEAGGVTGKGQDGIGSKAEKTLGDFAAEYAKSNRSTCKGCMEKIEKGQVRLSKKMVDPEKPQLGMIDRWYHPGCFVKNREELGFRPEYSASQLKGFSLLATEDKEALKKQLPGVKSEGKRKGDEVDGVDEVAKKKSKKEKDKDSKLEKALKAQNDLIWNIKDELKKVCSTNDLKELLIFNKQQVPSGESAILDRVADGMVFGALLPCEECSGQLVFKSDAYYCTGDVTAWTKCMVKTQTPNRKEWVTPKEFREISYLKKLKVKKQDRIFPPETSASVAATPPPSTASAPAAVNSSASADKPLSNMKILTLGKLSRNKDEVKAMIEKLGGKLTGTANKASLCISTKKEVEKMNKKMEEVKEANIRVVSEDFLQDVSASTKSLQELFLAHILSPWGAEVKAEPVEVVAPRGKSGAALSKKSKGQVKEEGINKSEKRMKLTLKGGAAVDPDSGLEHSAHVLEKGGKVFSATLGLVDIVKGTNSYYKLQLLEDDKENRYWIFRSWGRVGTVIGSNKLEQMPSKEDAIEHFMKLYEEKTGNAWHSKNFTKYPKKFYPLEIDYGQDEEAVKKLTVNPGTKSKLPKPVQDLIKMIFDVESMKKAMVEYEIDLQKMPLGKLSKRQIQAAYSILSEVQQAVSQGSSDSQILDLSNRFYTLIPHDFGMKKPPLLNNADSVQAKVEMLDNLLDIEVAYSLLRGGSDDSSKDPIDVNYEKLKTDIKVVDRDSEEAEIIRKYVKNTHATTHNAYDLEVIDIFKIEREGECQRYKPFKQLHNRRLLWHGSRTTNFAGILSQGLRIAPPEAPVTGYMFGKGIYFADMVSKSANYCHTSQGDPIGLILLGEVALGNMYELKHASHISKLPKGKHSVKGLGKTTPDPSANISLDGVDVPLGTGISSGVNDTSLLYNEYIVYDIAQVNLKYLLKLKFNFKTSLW", "settings": "cited from earlier work"}, "PARPs 4, 10, 14, and 16": {"test_system": "PARPs 4, 10, 14, and 16", "settings": "cited from earlier work"}, "[2]": {"test_system": "inflammasome (caspase-1 cleavage)", "test": "Inflammasome activation measured by Caspase 1 cleavage (Casp-1 p20)", "format": "cell-based", "settings": "only somewhat reproducible", "text": "(§1) FIG. 4 contains 5 panels, 4A-4E, depicting that NAD^+ decline promotes inflammasome activation. FIG. 4A-4D show secretion of (FIG. 4A) IL-1β, (FIG. 4B) IL-18, (FIG. 4C) IL-6, and (FIG. 4D) TNF in response to LPS and nigericin, without and with NMN.\nOne hallmark of inflammasome activation is cleavage of caspase-1 to generate a 20 kD peptide."}, "BMDM": {"test_system": "BMDM", "test": "Polar metabolomics on BMDM extracts", "format": "cell-based, mouse", "procedure": "(§2) Polar metabolomics on BMDM extracts treated with LPS, OUL35, and NRH were performed. […] Recently, Prof. Marcia Haigis (HMS) published that Sirt3, an NAD^+-sensor, regulates nucleotide metabolism (Gonzalez Herrera et al., 2018). While an increase in nucleotides could promote DNA synthesis, macrophages are reported to suppress the cell cycle in response to LPS. However, macrophages do upregulate reactive oxygen species (ROS) production for bactericidal purposes in response to LPS, and two purines—hypoxanthine and xanthine—are important for this ROS production via the enzyme xanthine oxidase (XO). With the hypothesis that macrophages increase these metabolites for increased ROS production in mind, PARPi and NRH suppress nigericin-induced ROS production, although this experiment must be repeated (FIG. 12O)."}, "spleen NAD+ levels": {"test_system": "spleen NAD+ levels", "test": "NAD^+ levels in aged spleens after I.P. injection", "format": "in vivo", "settings": "27 month old mice, 20 mg/kg intraperitoneally, 2 hours post-injection", "procedure": "27 month old mice were injected intraperitoneally with 20 mg/kg of OUL35 dissolved in PBS with 40% HP-beta-cyclodextrin and 1% carboxymethylcellulose. Spleens were collected 2 hours post-injection and assayed for NAD+ levels."}, "[3]": {"test_system": "reactive oxygen species (ROS) production", "test": "Nigericin-induced ROS production in macrophages", "format": "cell-based", "settings": "30 min nigericin treatment; preliminary, must be repeated", "procedure": "as §2"}, "LPS induced sepsis": {"test_system": "LPS induced sepsis", "test": "LPS-induced sepsis (I.P. injection of LPS)", "format": "in vivo", "settings": "mice", "procedure": "One common assay to measure inflammation in vivo is with LPS induced sepsis, whereby LPS is injected intraperitoneally, resulting in a lethal cytokine storm. Drugs or mutations that suppress inflammation increase survival. Mice euthanized 6 hours after LPS injection show in increase in PARP14 levels in multiple tissues (FIG. 13A-D). NAD^+ levels fall in multiple tissues, and in at least in spleen, NAD^+ levels can be protected with a co-injection of PARPi and NRH (FIG. 13E)."}, "[4]": {"test_system": "poly-ADP-ribose (PAR) levels", "test": "Poly-ADP-ribose (PAR) levels in LPS-treated macrophages", "format": "cell-based", "settings": "NAD+ repletion", "text": "NMN, which raises levels of NAD^+, can suppress secretion of IL-1β and IL-18. […] The most robust observation seen is a restoration of poly-ADP-ribose (PAR) levels (FIG. 11B). While this is clearly an effect of restoring NAD^+ levels, its significance on macrophage function is unclear. […] Inflammatory gene expression may be altered, but this must be repeated with an increased N-value (FIG. 11D-F)."}, "[5]": {"test_system": "secretion of IL-1β, IL-18, IL-6 and TNF", "test": "Cytokine secretion in response to LPS and nigericin", "format": "cell-based", "text": "as §1\nIL-1β and IL-18 are unique cytokines in that they require activation of an inflammasome to be processed for release."}}, "note": "Entries after “also recorded” stand apart in the source; their conditions may differ.", "data": [{"molecule": "NC(=O)c1ccc[n+]([C@@H]2O[C@H](CO)[C@@H](O)[C@H]2O)c1", "note": "[NR, nicotinamide riboside]", "values": [{"measurement": "metabolism and aspects of ageing", "setting": "elderly mice", "result": "improve metabolism and reverse aspects of ageing"}]}, {"molecule": "NC(=O)c1cccc(N)c1", "note": "[3-aminobenzimide]", "values": [{"measurement": "LPS-induced drop in NAD^+ levels", "setting": "[1]", "result": "completely blocked"}, {"measurement": "raise NAD^+ levels in activated macrophages, compared with NMN", "setting": "[1]", "result": "beyond NMN"}]}, {"molecule": "O=C(O)c1ccccc1-c1ccccc1C(=O)Nc1ccc2c(c1)[nH]c(=O)c1ccccc12", "note": "[NSC-127133]", "values": [{"measurement": "LPS-induced drop in NAD^+ levels", "setting": "[1]", "result": "able to block the fall"}, {"measurement": "raise NAD^+ levels in activated macrophages, compared with NMN", "setting": "[1]", "result": "beyond NMN"}]}, {"molecule": "CCOc1ccccc1Cl", "note": "[NSC-61610]", "values": [{"measurement": "LPS-induced drop in NAD^+ levels", "setting": "[1]", "result": "able to block the fall"}, {"measurement": "raise NAD^+ levels in activated macrophages, compared with NMN", "setting": "[1]", "result": "beyond NMN"}, {"measurement": "effect in a model of influenza", "setting": "influenza", "result": "anti-inflammatory"}]}, {"molecule": "NC(=O)c1ccc(Oc2ccc(C(N)=O)cc2)cc1", "note": "[OUL35]", "values": [{"measurement": "LPS-induced drop in NAD^+ levels", "setting": "[1]", "result": "blocked the drop"}, {"measurement": "raise NAD^+ levels in activated macrophages, compared with NMN", "setting": "[1]", "result": "beyond NMN"}, {"measurement": "activity against PARP1", "setting": "PARP1", "result": "no activity"}, {"measurement": "inhibition of PARPs 4, 10, 14, and 16", "setting": "PARPs 4, 10, 14, and 16", "result": "inhibitor"}, {"measurement": "cleavage of caspase-1 (inflammasome activation)", "setting": "[2]", "result": "suppress"}, {"measurement": "metabolite changes induced by LPS", "setting": "BMDM", "result": "blunt the changes induced by LPS"}, {"measurement": "NAD^+ levels in aged spleens", "setting": "spleen NAD+ levels", "result": "raises NAD^+ levels"}]}, {"molecule": "NC(=O)C1=CN([C@@H]2O[C@H](CO)[C@@H](O)[C@H]2O)C=CC1", "note": "[NRH, Nicotinamide riboside hydride]", "values": [{"measurement": "protection of NAD^+ levels in macrophages exposed to LPS", "setting": "[1]", "result": "protect; also recorded: more potent protectors"}, {"measurement": "raising NAD^+ levels in BMDMs", "setting": "[1]; absence and presence of LPS, after 6 hours", "result": "extremely potent"}, {"measurement": "nigericin-induced ROS production", "setting": "[3]", "result": "suppress"}, {"measurement": "NAD^+ levels in spleen", "setting": "LPS induced sepsis; 6 hours after I.P. injection of LPS, co-injection", "result": "protected"}, {"measurement": "survival", "setting": "LPS induced sepsis; I.P. injection of LPS, vs LPS alone", "result": "moderately increased survival"}, {"measurement": "cleavage of caspase-1 (inflammasome activation)", "setting": "[2]", "result": "suppression of inflammasome activation"}, {"measurement": "metabolite changes induced by LPS", "setting": "BMDM", "result": "blunt the changes induced by LPS"}, {"measurement": "poly-ADP-ribose (PAR) levels", "setting": "[4]", "result": "restoration"}]}, {"molecule": "NC(=O)c1ccc[n+]([C@@H]2O[C@H](COP(=O)([O-])O)[C@@H](O)[C@H]2O)c1", "note": "[NMN, nicotinamide mononucleotide]", "values": [{"measurement": "metabolism and aspects of ageing", "setting": "elderly mice", "result": "improve metabolism and reverse aspects of ageing"}, {"measurement": "protection of NAD^+ levels in macrophages exposed to LPS", "setting": "[1]", "result": "slightly protect"}, {"measurement": "secretion of IL-1β and IL-18", "setting": "[5]", "result": "suppress"}, {"measurement": "secretion of IL-6 or TNF", "setting": "[5]", "result": "not"}]}, {"molecule": "CN(C)CC(=O)Nc1ccc2[nH]c(=O)c3ccccc3c2c1", "note": "[PJ-34]", "values": [{"measurement": "LPS-induced drop in NAD^+ levels", "setting": "[1]", "result": "completely blocked"}, {"measurement": "raise NAD^+ levels in activated macrophages, compared with NMN", "setting": "[1]", "result": "beyond NMN"}, {"measurement": "cleavage of caspase-1 (inflammasome activation)", "setting": "[2]", "result": "suppress"}]}]}
